Measured values taken from US8242275B2, “Bicyclic pyrazole compounds as antibacterial agents” (Janssen Pharmaceutica NV, priority 2005, dated 2012).
≈ marks a conversion by molar mass, not a printed value.

Assays:
Test in all cases: In vitro antibacterial activity (MIC assay), broth microdilution
Format in all cases: cell-based
[1] = test system: S. aureus ATCC13709; details: Staphylococcus aureus, ATCC13709; read-out: S. aureus ATCC13709 MIC
Procedure: (§1) Minimal inhibitory concentration (MIC) has been an indicator of in vitro antibacterial activity widely used in the art. The in vitro antibacterial activity of the compounds was determined by the broth microdilution method described by the National Committee for Clinical Laboratory Standards (NCCLS) in the NCCLS Document M7-A5, Vol. 20, No. 2, “Methods for Dilution Antimicrobial Susceptibility Test for Bacteria that Grow Aerobically—Fifth Edition”, which is incorporated herein by reference.
(§2) In this method, an aliquot of test compound from an 11-point series of 2-fold serial dilutions of compounds in 100% DMSO was added to wells in microdilution plates. The test organisms were prepared by adjusting the turbidity of actively growing broth cultures so that the final concentration of test organism after addition to wells with or without compounds was approximately 5×10^5 CFU/mL.
(§3) Following inoculation of the microdilution plates, the plates were incubated at 35° C. for 16-24 h and then scored for bacterial growth. […] The amount of growth in the wells containing the test compound was compared with the amount of growth in the growth-control wells (no test compound used) in each plate, and with the amount of growth in the wells containing control compounds (such as ciprofloxacin). Compounds of the present invention were tested against several bacterial strains. The MIC values (in μg/mL) are presented in Table 1 for Gram-negative (E. coli KL-16 (GSC strain 4245); data marked as (*) was obtained with E. coli ATCC25922) and Gram-positive bacteria (S. aureus ATCC13709; S. pneumoniae ATCC49619).

[2] = test system: E. coli KL-16 (GSC strain 4245); details: Escherichia coli
Procedure: as §1, §2, §3

[3] = test system: S. pneumoniae ATCC49619; details: Streptococcus pneumoniae, ATCC49619; read-out: S. pneumoniae ATCC49619 MIC
Procedure: as §1, §2, §3

Row | SMILES | MIC [1] [µg/mL] | MIC [2] [µg/mL] | MIC [3] [µg/mL]
1 | COc1ccc2nccc(-n3cc4c(n3)CCC(NC(=O)/C=C/c3ccccc3)C4)c2c1 (stereo not drawn) [Example 29, N-[2-(6-Methoxy-quinolin-4-yl)-4,5,6,7-tetrahydro-2H-indazol-5-yl]-3-phenyl-acrylamide] | 1 (≈ 2.36 µM) | > 128 | 4 (≈ 9.42 µM)
2 | COc1ccc2nccc(-n3cc4c(n3)CCC(NCC(=O)Nc3ccc(Cl)c(Cl)c3)C4)c2c1 (stereo not drawn) [Example 62, N-(3,4-Dichloro-phenyl)-2-[2-(6-methoxy-quinolin-4-yl)-4,5,6,7-tetrahydro-2H-indazol-5-ylamino]-acetamide] | 1 (≈ 2.01 µM) | > 128 | 16 (≈ 32.2 µM)
3 | COc1ccc2nccc(-n3cc4c(n3)CCC(NC(=O)c3cc5c(F)cccc5s3)C4)c2c1 (stereo not drawn) [Example 24, 4-Fluoro-benzo[b]thiophene-2-carboxylic acid [2-(6-methoxy-quinolin-4-yl)-4,5,6,7-tetrahydro-2H-indazol-5-yl]-amide] | < 0.125 | > 128 | 4 (≈ 8.46 µM)
4 | COc1ccc2nccc(-n3cc4c(n3)CCC(NC(=O)/C=C/c3cccs3)C4)c2c1 (stereo not drawn) [Example 30, N-[2-(6-Methoxy-quinolin-4-yl)-4,5,6,7-tetrahydro-2H-indazol-5-yl]-3-thiophen-2-yl-acrylamide] | 1 (≈ 2.32 µM) | > 128 | 8 (≈ 18.6 µM)
5 | COc1ccc2nccc(-n3cc4c(n3)CCC(NCC(=O)NCc3ccccc3)C4)c2n1 (stereo not drawn) [Example 84, N-Benzyl-2-[2-(6-methoxy-[1,5]naphthyridin-4-yl)-4,5,6,7-tetrahydro-2H-indazol-5-ylamino]-acetamide] | 2 (≈ 4.52 µM) | > 128 | 16 (≈ 36.2 µM)
6 | COc1ccc2nccc(-n3ncc4c3CCC(NC(=O)c3cc5c(cc3C(F)(F)F)SCC(=O)N5)C4)c2c1 (stereo not drawn) [Example 99, 3-Oxo-7-trifluoromethyl-3,4-dihydro-2H-benzo[1,4]thiazine-6-carboxylic acid [1-(6-methoxy-quinolin-4-yl)-4,5,6,7-tetrahydro-1H-indazol-5-yl]-amide] | 2 (≈ 3.61 µM) | > 128 | > 128
7 | COc1ccc2nccc(-n3cc4c(n3)CCC(NC(=O)c3nc5ccccc5[nH]3)C4)c2c1 (stereo not drawn) [Example 71, 1H-Benzoimidazole-2-carboxylic acid [2-(6-methoxy-quinolin-4-yl)-4,5,6,7-tetrahydro-2H-indazol-5-yl]-amide] | 2 (≈ 4.56 µM) | > 128 | 8 (≈ 18.2 µM)
8 | COc1ccc2nccc(-n3ncc4c3CCC(NC(=O)c3cc5c(cc3Br)SCC(=O)N5)C4)c2c1 (stereo not drawn) [Example 98, 7-Bromo-3-oxo-3,4-dihydro-2H-benzo[1,4]thiazine-6-carboxylic acid [1-(6-methoxy-quinolin-4-yl)-4,5,6,7-tetrahydro-1H-indazol-5-yl]-amide] | 16 (≈ 28.3 µM) | > 128 | 64 (≈ 113 µM)
9 | COc1ccc2nccc(-n3cc4c(n3)CCC(NCc3ccc(N(C)C)cc3)C4)c2n1 (stereo not drawn) [Example 39, (4-Dimethylamino-benzyl)-[2-(6-methoxy-[1,5]naphthyridin-4-yl)-4,5,6,7-tetrahydro-2H-indazol-5-yl]-amine] | 0.5 (≈ 1.17 µM) | > 128 | 1 (≈ 2.33 µM)
10 | Cc1cc(-n2cc3c(n2)CCC(NC(=O)c2ccc4c(c2)NC(=O)CS4)C3)c2cc(F)ccc2n1 (stereo not drawn) [Example 82, 3-Oxo-3,4-dihydro-2H-benzo[1,4]thiazine-6-carboxylic acid [2-(6-fluoro-2-methyl-quinolin-4-yl)-4,5,6,7-tetrahydro-2H-indazol-5-yl]-amide] | 8 (≈ 16.4 µM) | > 128 | > 128
11 | COc1ccc2nccc(-n3cc4c(n3)CCC(NC/C(C)=C/c3ccccc3)C4)c2c1 (stereo not drawn) [Example 56, [2-(6-Methoxy-quinolin-4-yl)-4,5,6,7-tetrahydro-2H-indazol-5-yl]-(2-methyl-3-phenyl-allyl)-amine] | 1 (≈ 2.36 µM) | 128 (≈ 301 µM) | 2 (≈ 4.71 µM)
12 | COc1ccc2nccc(-n3cc4c(n3)CCC(NC(=O)c3cc5cc(Br)ccc5[nH]3)C4)c2c1 (stereo not drawn) [Example 76, 5-Bromo-1H-indole-2-carboxylic acid [2-(6-methoxy-quinolin-4-yl)-4,5,6,7-tetrahydro-2H-indazol-5-yl]-amide] | 2 (≈ 3.87 µM) | > 128 | > 128
13 | COc1ccc2nccc(-n3cc4c(n3)CCC(NCC(=O)c3ccc5c(c3)NC(=O)CO5)C4)c2c1 (stereo not drawn) [Example 63, 6-{2-[2-(6-Methoxy-quinolin-4-yl)-4,5,6,7-tetrahydro-2H-indazol-5-ylamino]-acetyl}-4H-benzo[1,4]oxazin-3-one] | 0.1 (≈ 0.207 µM) | 6 (≈ 12.4 µM) | 0.8 (≈ 1.65 µM)
14 | COc1ccc2nccc(-n3cc4c(n3)CC(NC(=O)c3ccc5c(c3)NC(=O)CS5)CC4)c2c1 (stereo not drawn) [Example 27, 3-Oxo-3,4-dihydro-2H-benzo[1,4]thiazine-6-carboxylic acid [2-(6-methoxy-quinolin-4-yl)-4,5,6,7-tetrahydro-2H-indazol-6-yl]-amide] | 0.125 (≈ 0.257 µM) | 4 (≈ 8.24 µM) | 4 (≈ 8.24 µM)
15 | COc1ccc2nccc(-n3cc4c(n3)CCC(NCc3cc5c(cc3F)OCCO5)C4)c2c1 (stereo not drawn) [Example 51, (7-Fluoro-2,3-dihydro-benzo[1,4]dioxin-6-ylmethyl)-[2-(6-methoxy-quinolin-4-yl)-4,5,6,7-tetrahydro-2H-indazol-5-yl]-amine] | 1 (≈ 2.17 µM) | > 128 | 1 (≈ 2.17 µM)

More lines, now with the values ahead:

Row | MIC [1] [µg/mL] | MIC [2] [µg/mL] | MIC [3] [µg/mL] | SMILES
16 | 0.5 (≈ 1.05 µM) | > 128 | 8 (≈ 16.8 µM) | COc1ccc2nccc(-n3cc4c(n3)CCC(NC(=O)c3cc(F)c5c(c3)OCCO5)C4)c2n1 (stereo not drawn) [Example 127, 8-Fluoro-2,3-dihydro-benzo[1,4]dioxine-6-carboxylic acid [2-(6-methoxy-[1,5]naphthyridin-4-yl)-4,5,6,7-tetrahydro-2H-indazol-5-yl]-amide]
17 | 0.25 (≈ 0.588 µM) | > 128 | 2 (≈ 4.7 µM) | COc1ccc2nccc(-n3cc4c(n3)CCC(NC(=O)/C=C/c3ccccc3)C4)c2n1 (stereo not drawn) [Example 10, N-[2-(6-Methoxy-[1,5]naphthyridin-4-yl)-4,5,6,7-tetrahydro-2H-indazol-5-yl]-3-phenyl-acrylamide]
18 | 0.5 (≈ 1.05 µM) | > 128 | 8 (≈ 16.8 µM) | COc1ccc2nccc(-n3cc4c(n3)CCC(NC(=O)c3cc5c(cc3F)OCCO5)C4)c2n1 (stereo not drawn) [Example 2, 7-Fluoro-2,3-dihydro-benzo[1,4]dioxine-6-carboxylic acid [2-(6-methoxy-[1,5]naphthyridin-4-yl)-4,5,6,7-tetrahydro-2H-indazol-5-yl]-amide]
19 | 2 (≈ 4.03 µM) | > 128 | 32 (≈ 64.5 µM) | COc1ccc2nccc(-n3cc4c(n3)CCC(NCC(=O)Nc3cccc(C(F)(F)F)c3)C4)c2n1 (stereo not drawn) [Example 122, 2-[2-(6-Methoxy-[1,5]naphthyridin-4-yl)-4,5,6,7-tetrahydro-2H-indazol-5-ylamino]-N-(3-trifluoromethyl-phenyl)-acetamide]
20 | 1 (≈ 2.12 µM) | > 128 | 4 (≈ 8.48 µM) | COc1ccc2nccc(-n3cc4c(n3)CCC(NC(=O)c3ccc5c(c3)OCCCO5)C4)c2n1 (stereo not drawn) [Example 3, 3,4-Dihydro-2H-benzo[b][1,4]dioxepine-7-carboxylic acid [2-(6-methoxy-[1,5]naphthyridin-4-yl)-4,5,6,7-tetrahydro-2H-indazol-5-yl]-amide]
21 | 1 (≈ 2.16 µM) | > 128 | > 128 | COc1ccc2nccc(-n3cc4c(n3)CCC(NCC(=O)Nc3cccc(Cl)c3)C4)c2n1 (stereo not drawn) [Example 123, N-(3-Chloro-phenyl)-2-[2-(6-methoxy-[1,5]naphthyridin-4-yl)-4,5,6,7-tetrahydro-2H-indazol-5-ylamino]-acetamide]
22 | 2 (≈ 3.96 µM) | > 128 | > 128 | COc1ccc2nccc(-n3cc4c(n3)CCC(NC(=O)/C=C/c3cc([N+](=O)[O-])ccc3Cl)C4)c2n1 (stereo not drawn) [Example 94, 3-(2-Chloro-5-nitro-phenyl)-N-[2-(6-methoxy-[1,5]naphthyridin-4-yl)-4,5,6,7-tetrahydro-2H-indazol-5-yl]-acrylamide]
23 | 0.25 (≈ 0.545 µM) | > 128 | 8 (≈ 17.4 µM) | COc1ccc2nccc(-n3cc4c(n3)CCC(NC(=O)c3ccc(C)c([N+](=O)[O-])c3)C4)c2n1 (stereo not drawn) [Example 110, N-[2-(6-Methoxy-[1,5]naphthyridin-4-yl)-4,5,6,7-tetrahydro-2H-indazol-5-yl]-4-methyl-3-nitro-benzamide]
24 | 1 (≈ 2.33 µM) | 128 (≈ 299 µM) | 8 (≈ 18.7 µM) | COc1ccc2nccc(-n3cc4c(n3)CCC(NCC(=O)Nc3ccccc3)C4)c2n1 (stereo not drawn) [Example 59, 2-[2-(6-Methoxy-[1,5]naphthyridin-4-yl)-4,5,6,7-tetrahydro-2H-indazol-5-ylamino]-N-phenyl-acetamide]
25 | 0.25 (≈ 0.514 µM) | > 128 | 8 (≈ 16.4 µM) | COc1ccc2nccc(-n3cc4c(n3)CCC(NC(=O)c3cc(F)c(Cl)cc3Cl)C4)c2n1 (stereo not drawn) [Example 125, 2,4-Dichloro-5-fluoro-N-[2-(6-methoxy-[1,5]naphthyridin-4-yl)-4,5,6,7-tetrahydro-2H-indazol-5-yl]-benzamide]
